This is an account of results in patent EP0377457A1, “Thiazole compounds, processes for the preparation thereof, and pharmaceutical composition comprising the same” (FUJISAWA PHARMACEUTICAL CO., LTD., priority 1989, dated 1990).

Data set [1] relates to platelet aggregation. Nature of the data set: Platelet aggregation ex vivo (arachidonic acid-induced, PRP after oral administration). To be noted: Cavia porcellus, 6 h, dose 1.0 mg/kg oral, blood collected six hours after administration, arachidonic acid final 50 µM as inducer. It counts as in vivo, guinea-pigs. Here is the method:
Male Hartley guinea-pigs weighing about 300 g were used after 24 hours fasting. Six hours after oral administration of the test compound or vehicle of test compound (control), blood was collected into a tube containing 0.1 vol. of 3.8% sodium citrate and prepared platelet rich plasma (PRP).
To the 250 µl of PRP, 5 µl of arachidonic acid (final 50 µM) was added as an aggregation inducer. Aggregation was measured by using an aggregometer (NKK HEMA-TRACER 1).

For data set [2], the system named is Paw edema. In words: Antiinflammatory activity (carrageenin paw edema). It counts as in vivo, Sprague-Dawly rats. To be noted: 100 mg/kg orally 60 minutes before carrageenin; edema volume at 3 hours. The method, then: Five male Sprague-Dawly rats weighing 160-180 g were used per group. Paw edema was induced by subplantar injection of 1 % carrageenin (0.1 ml/rat) into the right hind paw. The test drug was suspended in 0.5% methylcellulose and administered orally 60 minutes before phlogogen. Paw volume was measured with plethysmometer (Ugo Bazil Co., Ltd.) by water displacement immersing the paw to the lateral malleolus. The difference of paw volume before and 3 hours after the phlogogen was designated as edema volume. The data were analyzed statistically by student's t-test.
In general terms: In the carrageenan paw model, swelling and tenderness develop within hours.

The test system of data set [3] is isolated rat aorta. Nature of the data set: Relaxation effect on isolated rat aorta. The method, then:
Contraction was induced by addition of KCt solution (final concentration was 30 mM).

The target in data set [4] is T1, cyclooxygenase (Ovis aries, UniProt P05979).
T1 construct: 240 µg of the microsomal enzyme; tissue Ran Biochem (Israel); host or cells: sheep seminal vesicles, microsomal fraction
T1 sequence (P05979 25-600): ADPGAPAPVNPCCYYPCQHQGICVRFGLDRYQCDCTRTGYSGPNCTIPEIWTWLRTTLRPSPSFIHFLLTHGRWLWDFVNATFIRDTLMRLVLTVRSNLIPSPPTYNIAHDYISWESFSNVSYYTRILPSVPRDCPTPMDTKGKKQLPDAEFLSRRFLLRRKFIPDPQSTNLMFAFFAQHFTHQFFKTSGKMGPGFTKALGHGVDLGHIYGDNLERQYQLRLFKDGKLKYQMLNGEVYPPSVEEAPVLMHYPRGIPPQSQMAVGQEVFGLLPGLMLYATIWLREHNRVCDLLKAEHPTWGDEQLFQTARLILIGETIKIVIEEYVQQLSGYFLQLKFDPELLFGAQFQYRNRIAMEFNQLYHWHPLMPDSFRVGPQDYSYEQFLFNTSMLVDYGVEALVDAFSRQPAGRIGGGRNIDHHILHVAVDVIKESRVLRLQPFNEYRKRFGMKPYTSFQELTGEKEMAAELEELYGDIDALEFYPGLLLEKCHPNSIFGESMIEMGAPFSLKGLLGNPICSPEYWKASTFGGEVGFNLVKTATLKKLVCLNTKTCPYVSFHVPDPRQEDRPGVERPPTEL
Nature of the data set: Assay for cyclooxygenase inhibition. It counts as biochemical, sheep. Here is the method:
The microsomal fraction from sheep seminals vesicles was purchased from Ran Biochem (Israel). The reaction mixture consisted of 0.1 M Tris-HCI, pH 7.6, 1 mM epinephrine, 2 mM glutathione, 240 µg of the microsomal enzyme, in a total volume of 200 µl. The reaction was started by the addition of 10 µM (^14C) arachidonic acid (120 nM), and incubated at 37° C for 5 min. The reaction was stopped by the addition of 50 µl of 1 N HCI. The synthesized prostaglandins were extracted with 1.5 ml of ethylacetate. The ethyl acetate layer was dried with nitrogen gas, and dissolved in 100 µl of methanol. Ten microliters of the methanol solution were applied to a thin-layer plate (Merck, Kiesegel 60F), and developed with ethylacetate : acetate (100:2). The PGE2 fraction was scraped out, and the radioactivity was counted with 10 ml of toluene scintilator.
The activity of the test compound was expressed as IC50 value i.e. doses required to inhibit the activity of cyclooxygenase by 50%.

Data set [5] deals with SRS-A synthesis or release from peritoneal exudate cells. In words: Anti-SRS-A activity. It counts as cell-based, SD rats. To be noted: rat peritoneal exudate cells; Ca++-ionophore 1 µg/ml; SRS-A read on isolated guinea pig ileum; read-out: Inhibitory Concentration IC50. The method, then:
Peritoneal exudate cells were collected from glycogen-injected SD rats and adjusted to 1 x 10^7 cells/ml with Tyrode's solution. One milliliter of the cell suspension was incubated with indomethacin (10 µg/ml) and each varied concentration of the test compound for 10 minutes and, then, further incubated with Ca^++ - ionophore (A123187, 1 µg/ml) for 10 minutes. The supernatant was collected by centrifugation and the SRS-A (slow-reacting substance of anaphylaxis) activity was determined in terms of contractility of the isolated guinea pig ileum in the presence of mepyramine, atropine and methysergide.
The results were expressed in terms of the 50% inhibitory concentration to SRS-A synthesis or release from peritoneal exudate cells.

The test system of data set [6] is rats. Nature of the data set: Acute toxicity. It is filed as in vivo. To be noted: peroral administration, 100 mg/kg.
Data set [7] relates to stomachs of the rats. In words: Effect on stomach of rats. It counts as in vivo. To be noted: 100 mg/kg orally, rats treated as in the antiinflammatory test.
Data set [8] in a line: Half-life period. To be noted: rat, in vivo; rats, intravenous administration (0.32 mg/kg), (,B-phase).
Data set [9] relates to human washed platelets. Nature of the data set: Thrombin induced aggregation in human washed platelets. To be noted: Platelet, concentration 1.0 x 10^-5 M, thrombin final conc. 0.3-0.5 U/ml. It counts as cell-based. The method, then:
Blood was drawn from healthy volunteers into a plastic tube containing 1/10 volume of 3.8% sodium citrate and centrifuged at 120 g for 10 min to obtain platelet rich plasma (PRP). An equal volume of 25 mM Tris-HCI buffer (pH 7.4) containing 130 mM NaCl and 1.5 mM EDTA (buffer A) was added to the PRP, mixed and centrifuged at 1500 g for 10 min. The platelet pellet was suspended in buffer A and centrifuged at 1500 g for 5 min. The platelets were resuspended in 25 mM Tris-HCI buffer (pH 7.4) containing 130 mM NaCl and 0.3 mM EDTA and recentrifuged at 1500 g for 5 min. The platelets were finally suspended in Tyrode solution containing 0.3 % bovine serum albumin and the platelet count was adjusted to 3 x 10^8/ml. To 247.5 µl of platelet suspension, 2.5 µl of drug solution was added and incubated for 2 min at 37° C prior to addition of thrombin solution (final conc. 0.3-0.5 U/ml). Platelet aggregation was turbidometrically measured using a HEMATRACER 1.

The subject of data set [10] is platelet aggregation. In words: Platelet aggregation in vitro (collagen-induced, human PRP). To be noted: collagen (0.5 µg/ml) as inducer. It is filed as cell-based. Here is the method:
(§1) Platelet rich plasma (PRP) which contains 6 - 7 x 10^8 platelets/ml and 3 x 10^8 platelets/ml was prepared from guinea-pig and human blood, respectively. To the each 245 µℓ of PRP, 5 µℓ of drug solution^* was added, and then stirred for 2 min at 37° C. To the solution, […] of collagen (0.5 µg/mℓ) was added as an aggregation inducer. Aggregation was measured by using an aggregometer (NKK HEMA-TRACER 1). Activities of inhibitors (test compounds) were expressed as IC50 values i.e. doses required to inhibit the platelet aggregation responses by 50%.
(§2) Drug solution^* --- Test compounds were dissolved in a mixture of ethanol, polyethylene glycol and saline (1:1:2, V/V/V) and dimethylsulfoxide for guinea-pig and human blood, respectively.

Data set [11] has as its system platelet aggregation. Nature of the data set: Platelet aggregation in vitro (collagen-induced, guinea-pig PRP). To be noted: Cavia porcellus, collagen (0.5 µg/ml) as inducer. It is filed as cell-based. Here is the method:
as §1, §2

Setting [12] is: contraction induced by KCl 30 mM, maximum relaxation by papaverine, read-out: ED50 (the source's name).

Molecules are shown by their SMILES. Structures can show the parent of a compound that is named as a salt. Where two headings read alike, the source gives them in different places.

A word on the inhibition: it is how much of the control response was suppressed. Higher therefore signals a response far below the control. Broadly, the half-life is the time in which the quantity being followed falls by half. Lower therefore signals fast loss. With `COc1ccc(-c2nc(C(=O)N3CCN(C)CC3)sc2-c2ccc(OC)cc2)cc1.Cl` [Example 1, 4,5-bis(4-methoxyphenyl)-2-(4-methylpiperazin-1-yl)carbonylthiazole hydrochloride], testing at 1 mg/kg in data set [1] gave an inhibition of 100%. For the same compound, the “Inhibition (%) (Dose : 100 mg/kg)” value in data set [2] is recorded as 36.2%. Besides, the EC50 in data set [3] (read-out: ED50 (M)) was 6.2e-06 M. Further, the IC50 in data set [4] was found to be 430 nM; in [5], 6.28 µg/mL. For the same compound, the “acute toxicity (dead)” value in [6] was “the dead at dose of 100 mg/kg could not be observed”. The “lesion in the stomachs” value in data set [7] is “No lesion was observed”. The half-life in data set [8] is 4.51 h.
`COc1ccc(-c2nc(C(=O)N(C)C)sc2-c2ccc(OC)cc2)cc1` [Example 3, 4,5-bis(4-methoxyphenyl)-2-(N,N-dimethylcarbamoyl) thiazole]: the EC50 in [3] (setting [12]) came to 3e-06 M.
As to `COc1ccc(-c2nc(CNC(=N)N)sc2-c2ccc(OC)cc2)cc1` [Example 12, 4,5-bis(4-methoxyphenyl)-2-guanidinomethylthiazole hydrochloride], in data set [9], the inhibition at 10 µM is 100%.
As for `COc1ccc(-c2nc(NC(=N)N(C)C)sc2-c2ccc(OC)cc2)cc1` [Example 14, 4,5-bis(4-methoxyphenyl)-2-(3,3-dimethylguanidino)thiazole hydrochloride], the EC50 in data set [3] (setting [12]) was determined as 4.8e-06 M. Further, the IC50 in [10] worked out at 560 nM; in data set [11], 42 nM.
For the compound `CN=C(NC)Nc1nc(-c2ccc(OC)cc2)c(-c2ccc(OC)cc2)s1` [Example 21, 4,5-Bis(4-methoxyphenyl)-2-(2,3-dimethylguanidino)thiazole methanesulfonate], the EC50 in data set [3] (setting [12]) was 2.4e-06 M.
